According to publication PMC3892053, “Pharmacokinetic/pharmacodynamic modeling for the determination of a cimicoxib dosing regimen in the dog” (BMC Veterinary Research, 2013):
Converted amounts (≈) assume the structure as drawn. Read-outs that look alike come from different tables or passages of the source.

System: kaolin-induced paw inflammation
Assay: PK/PD modelling (indirect response models) of kaolin paw inflammation endpoints
Type: in vivo, dog
Settings: for EC50 at 2 mg/kg / IC50 at 2 mg/kg: po; for EC50 at 2 mg/kg: read-out: EC50, body temperature
Protocol: Pharmacokinetic and PK/PD modeling were performed by least-squares regression analysis using WinNonlin Professional software (WinNonlin® software, version 4.0.1, Pharsight Corporation, Mountain View, Ca, USA). For PK analysis, individual plasma cimicoxib concentrations were fitted to polyexponential equations. The data points were weighted by the inverse of the squared-fitted value. The number of exponential (2 or 3) terms needed to obtain the best fit for each data set was determined by the Akaike’s information criteria and by inspecting the plot of residuals. A biexponential equation corresponding to a mono-compartmental model for extravascular administration with a lag-time was selected (Equation 1).
As the effect cimicoxib on the local temperature and paw oedema after inflammation were present but lower than the other effects, these endpoints were not used for the PK/PD analysis. […] Finally, four endpoints were considered as suitable for the PK/PD analysis aiming at modelling the relationship between cimicoxib plasma concentrations and its antipyretic and anti-inflammatory effects, namely: body temperature (antipyretic effect), creeping speed, vertical force of the paw and clinical lameness score (anti-inflammatory effects).
The selected PK/PD models were of the class of the indirect response models as proposed by Dayneka. In these models, the measured response (R) is assumed to result from factors controlling either the development (Kin) or the dissipation (Kout) of the response according to Equation 3.
where dR/dt is the rate of change of the response over time, Kin represents the zero-order rate constant for production of the response and Kout the first-order rate constant for loss of the response. The time development of measured response was modeled by a sigmoid-Emax (maximum stimulatory effect) or sigmoid-Imax (maximum inhibition effect) function (Hill models) that can be exerted either on Kin or Kout. […] The effect of cimicoxib on the central temperature was based on a model assuming that during the inflammation phase, thermogenesis is increased (increase in Kin) while thermolysis is reduced (reduction in Kout) until a new balance for central temperature is reached. The antipyretic effect of an NSAID consisted of an increase in thermolysis (increase of Kout) enabling the central temperature to return to its control values, according to Equation 4:
(4) dR/dT=Kin-Kout×1+Emax×C^n/EC50^n+C^n×R
For the creeping test consisting of crossing the tunnel more or less rapidly, an empirical model postulating that the dog’s speed (m.s^-1) is the result of a balance between its motivation to move forward (Kin) and a braking effect (Kout) associated with the severity of inflammation with a lower Kout in control conditions than during inflammation. During inflammation, pain increases the braking effect (i.e. increase Kout) and decreases the speed to cross the tunnel. The anti-inflammatory effect of cimicoxib consisted in reducing the pain (by decreasing Kout), which in turn increased the speed to cross the tunnel as described by Equation 5:
(5) dR/dT=Kin-Kout×1-Imax×C^n/IC50^n+C^n×R
For the vertical force measured with the force plate apparatus normalized by the weight of the dog (without units), Kin represents the ground reaction forces in control resting conditions and Kout represents the factors prompting the withdrawal of limb from the ground in the case of inflammation due to pain i.e. that Kout is increased in the case of inflammation. Thus, the anti-inflammatory effect of cimicoxib consisted in a reduction of pain (decrease of Kout) and the same model as for the creeping speed under the tunnel was used (see Equation 5).
During inflammation, Kin is increased and the effect of cimicoxib was modelled using a concentration-dependent inhibition of Kin, according to Equation 6:
(6) dR/dT=Kin×1-C^n/IC50^n+C^n-Kout×R

[1] = plasma concentration, oral 2 mg/kg, PM dogs, mean and range, 2 mg/kg

COc1ccc(-c2c(Cl)ncn2-c2ccc(S(N)(=O)=O)cc2)cc1F [cimicoxib]
EC50 (Canis lupus familiaris, abstract, value matches EM dogs, read-out: plasma concentration corresponding to half the maximum of the indirect effect, body temperature): 0.193 µg/mL (≈ 0.505 µM) | IC50 (Canis lupus familiaris, abstract, value matches EM dogs, read-out: plasma concentration corresponding to half the maximum of the indirect effect, creeping speed): 0.239 µg/mL (≈ 0.626 µM) | IC50 (Canis lupus familiaris, abstract, value matches EM dogs, read-out: plasma concentration corresponding to half the maximum of the indirect effect, ground reaction vertical force): 0.161 µg/mL (≈ 0.422 µM) | IC50 (Canis lupus familiaris, abstract, value matches EM dogs, read-out: plasma concentration corresponding to half the maximum of the indirect effect, lameness score): 0.284 µg/mL (≈ 0.744 µM) | EC50 at 2 mg/kg (Canis lupus familiaris, plasma concentration, oral 2 mg/kg, EM dogs, mean and range): 0.193 µg/mL (≈ 0.506 µM) | IC50 at 2 mg/kg (Canis lupus familiaris, plasma concentration, oral 2 mg/kg, EM dogs, mean and range, read-out: IC50, creeping speed): 0.239 µg/mL (≈ 0.627 µM) | IC50 at 2 mg/kg (Canis lupus familiaris, plasma concentration, oral 2 mg/kg, EM dogs, mean and range, read-out: IC50, lameness score): 0.284 µg/mL (≈ 0.745 µM) | IC50 at 2 mg/kg (Canis lupus familiaris, plasma concentration, oral 2 mg/kg, EM dogs, mean and range, read-out: IC50, vertical force): 0.161 µg/mL (≈ 0.421 µM) | EC50 at 2 mg/kg (Canis lupus familiaris, plasma concentration, oral 2 mg/kg, PM dogs, mean and range): 0.473 µg/mL (≈ 1.24 µM) | IC50 at 2 mg/kg (Canis lupus familiaris, plasma concentration, oral 2 mg/kg, PM dogs, mean and range, read-out: IC50, creeping speed): 0.345 µg/mL (≈ 0.902 µM) | IC50 at 2 mg/kg (Canis lupus familiaris, plasma concentration, oral 2 mg/kg, PM dogs, mean and range, read-out: IC50, lameness score): 0.786 µg/mL (≈ 2.06 µM) | IC50 at 2 mg/kg (Canis lupus familiaris, plasma concentration, oral 2 mg/kg, PM dogs, mean and range, read-out: IC50, vertical force): 0.325 µg/mL (≈ 0.851 µM) | Emax, body temperature (EM dogs, mean and range): 0.04 [0.03, 0.06] no unit | Imax, creeping speed (EM dogs, mean and range): 0.71 [0.38, 1.00] no unit | Imax, vertical force (EM dogs, mean and range): 0.98 [0.93, 1.00] no unit | Kin, body temperature (EM dogs, mean and range): 41.30 [20.76, 84.13] °C.h^-1 | Kin, creeping speed (EM dogs, mean and range): 0.90 [0.15, 2.71] m.s^-1.h^-1 | Kin, lameness score (EM dogs, mean and range): 5.34 [1.17, 16.87] score.h^-1 | Kin, vertical force (EM dogs, mean and range): 0.09 [0.06, 0.10] normalised force.h^-1 | Kout, body temperature (EM dogs, mean and range): 1.04 [0.53, 2.10] h^-1 | Kout, creeping speed (EM dogs, mean and range): 0.95 [0.24, 2.02] h^-1 | Kout, lameness score (EM dogs, mean and range): 1.08 [0.22, 3.54] h^-1 | Kout, vertical force (EM dogs, mean and range): 7.40 [3.21, 10.00] h^-1 | Emax, body temperature (PM dogs, mean and range): 0.04 [0.03, 0.04] no unit | Imax, creeping speed (PM dogs, mean and range): 0.70 [0.44, 0.87] no unit | Imax, vertical force (PM dogs, mean and range): 0.97 [0.95, 0.99] no unit | Kin, body temperature (PM dogs, mean and range): 45.84 [42.76, 49.19] °C.h^-1 | Kin, creeping speed (PM dogs, mean and range): 0.76 [0.36, 0.97] m.s^-1.h^-1 | Kin, lameness score (PM dogs, mean and range): 2.57 [0.70, 4.96] score.h^-1 | Kin, vertical force (PM dogs, mean and range): 0.09 [0.07, 0.10] normalised force.h^-1 | Kout, body temperature (PM dogs, mean and range): 1.17 [1.09, 1.25] h^-1 | Kout, creeping speed (PM dogs, mean and range): 1.07 [0.80, 1.47] h^-1 | Kout, lameness score (PM dogs, mean and range): 0.509 [0.14, 0.99] h^-1 | Kout, vertical force (PM dogs, mean and range): 8.47 [5.09, 9.99] h^-1 | IC50, lameness score [1]: 785.8 [579.4, 916.1] ng/mL | IC50, vertical force [1]: 325.1 [235.3, 397.6] ng/mL
